# Data as given in patent US7326708B2, “Phosphoric acid salt of a dipeptidyl peptidase-IV inhibitor” (Merck & Co., Inc., priority 2003, dated 2008).
# Columns and labels:
# [1] = physical (crystal form) stability of the solid; assay type: physicochemical; conditions: for stability of the crystal form: ambient condition
# solubility in water = assay type: physicochemical
stability of the crystal form [1],solubility in water (in words) (solubility in water),crystal form change on heating ([1]; heated to above 40° C. under very dry nitrogen flow),solubility (solubility in water) [mg/mL],SMILES
converted back to monohydrate,,,,N[C@@H](CC(=O)N1CCn2c(nnc2C(F)(F)F)C1)Cc1cc(F)c(F)cc1F.O=P(O)(O)O [Dehydrated monohydrate]
,high solubility in water,,,"NC(CC(=O)N1CCn2c(nnc2C(F)(F)F)C1)Cc1cc(F)c(F)cc1F (stereo not drawn) [4-oxo-4-[3-(trifluoromethyl)-5,6-dihydro[1 ,2,4]triazolo[4,3-a]pyrazin-7(8H)-yl]-1-(2,4,5-trifluorophenyl) butan-2-amine]"
stable under ambient condition,high solubility in water,convert to dehydrated monohydrate,~72,"N[C@@H](CC(=O)N1CCn2c(nnc2C(F)(F)F)C1)Cc1cc(F)c(F)cc1F [(2R)-4-oxo-4-[3-(trifluoromethyl)-5,6-dihydro[1,2,4]triazolo[4,3-a]pyrazin-7(8H)-yl]-1-(2,4,5-trifluorophenyl)butan-2-amine dihydrogenphosphate monohydrate]"
